What was measured:
Settings in all cases: 72 h
U2OS [1] = assay: cell viability relative to DMSO; higher = less toxic
HepG2 [2] = assay: as above
Vero E6 [3] = assay: as above
Caco-2 [4] = assay: as above
Calu-3 [5] = assay: as above
U2OS [6] = assay: relative viability EC50 (midpoint between 100% and the lowest measured viability); higher = less toxic
HepG2 [7] = assay: as above
Vero E6 [8] = assay: as above
Caco-2 [9] = assay: as above
Calu-3 [10] = assay: as above
U2OS [11] = assay: drug sensitivity score (DSS) for viability; higher = more toxic; extreme values may be limits of the assay
HepG2 [12] = assay: as above
Vero E6 [13] = assay: as above
Caco-2 [14] = assay: as above
Calu-3 [15] = assay: as above

| SMILES | cell viability (U2OS [1]; 1 nM) | cell viability (U2OS [1]; 10 nM) | cell viability (U2OS [1]; 100 nM) | cell viability (U2OS [1]; 1000 nM) | cell viability (U2OS [1]; 10000 nM) | cell viability (HepG2 [2]; 1 nM) | cell viability (HepG2 [2]; 10 nM) | cell viability (HepG2 [2]; 100 nM) | cell viability (HepG2 [2]; 1000 nM) | cell viability (HepG2 [2]; 10000 nM) | cell viability (Vero E6 [3]; 1 nM) | cell viability (Vero E6 [3]; 10 nM) | cell viability (Vero E6 [3]; 100 nM) | cell viability (Vero E6 [3]; 1000 nM) | cell viability (Vero E6 [3]; 10000 nM) | cell viability (Caco-2 [4]; 1 nM) | cell viability (Caco-2 [4]; 10 nM) | cell viability (Caco-2 [4]; 100 nM) | cell viability (Caco-2 [4]; 1000 nM) | cell viability (Caco-2 [4]; 10000 nM) | cell viability (Calu-3 [5]; 1 nM) | cell viability (Calu-3 [5]; 10 nM) | cell viability (Calu-3 [5]; 100 nM) | cell viability (Calu-3 [5]; 1000 nM) | cell viability (Calu-3 [5]; 10000 nM) | relative viability EC50 (U2OS [6]) | relative viability EC50 (HepG2 [7]) | relative viability EC50 (Vero E6 [8]) | relative viability EC50 (Caco-2 [9]) | relative viability EC50 (Calu-3 [10]) | drug sensitivity score (U2OS [11]) | drug sensitivity score (HepG2 [12]) | drug sensitivity score (Vero E6 [13]) | drug sensitivity score (Caco-2 [14]) | drug sensitivity score (Calu-3 [15]) |
| --- | --- | --- | --- | --- | --- | --- | --- | --- | --- | --- | --- | --- | --- | --- | --- | --- | --- | --- | --- | --- | --- | --- | --- | --- | --- | --- | --- | --- | --- | --- | --- | --- | --- | --- | --- |
| CC1(C)C(=O)N(CCN2CCC(C(=O)c3ccc(F)cc3)CC2)c2ccccc21 | 97.7% | 96.3% | 98.2% | 95.9% | 97.8% | 95.3% | 102% | 90.8% | 97% | 87.8% | 96.1% | 102% | 91.8% | 94.2% | 106% | 88.5% | 102% | 104% | 97.2% | 91.6% | 99.5% | 91.4% | 90.6% | 98.4% | 89.8% | > 10 µM | > 10 µM | > 10 µM | > 10 µM | > 10 µM | 0 | 0 | 0 | 0 | 0 |
| CC1=C(/C=C/C(=C/C=C/C(C)=C/C(=O)O)c2ccc(C)cc2)C(C)(C)CCC1 |  |  |  |  |  | 106% | 103% | 98.2% | 94.2% | 98.4% | 99.1% | 95.2% | 101% | 97.2% | 108% | 90.9% | 94.2% | 95.4% | 98.4% | 97.1% | 94.6% | 106% | 112% | 102% | 99.3% |  | > 10 µM | > 10 µM | > 10 µM | > 10 µM |  | 0 | 0 | 0 | 0 |
| CCCCCCNC(=O)Nc1ccc(S(=O)(=O)Nc2ccc(CCNC[C@H](O)COc3ccc(O)cc3)cc2)cc1 | 106% | 96.6% | 101% | 99.9% | 103% | 95.6% | 110% | 92.1% | 103% | 107% | 92.7% | 95.8% | 91% | 96.2% | 110% | 102% | 82.7% | 102% | 102% | 104% | 105% | 96.8% | 93.5% | 102% | 88.3% | > 10 µM | > 10 µM | > 10 µM | > 10 µM | > 10 µM | 0 | 0 | 0 | 0 | 0 |
| CCOc1ccn(-c2ccc(F)cc2)c(=O)c1C(=O)Nc1ccc(Oc2ccnc(N)c2Cl)c(F)c1 | 102% | 98.4% | 103% | 99.2% | 98% | 110% | 116% | 108% | 96.9% | 68.5% | 103% | 99.1% | 101% | 98.8% | 81.5% | 101% | 90.4% | 90.3% | 103% | 75.1% | 93.5% | 103% | 101% | 96.1% | 94% | > 10 µM |  | > 10 µM | > 10 µM | > 10 µM | 0 | 1.9 | 0.6 | 0.8 | 0 |
| CCS(=O)(=O)N1CCC[C@@H]2CN3CCc4cc(OC)ccc4[C@@H]3C[C@@H]21 | 99.5% | 103% | 108% | 108% | 106% | 99.9% | 113% | 109% | 92.2% | 102% | 96.3% | 103% | 97.1% | 93.8% | 105% | 94.7% | 94.2% | 95% | 104% | 91.7% | 103% | 90.4% | 109% | 101% | 103% | > 10 µM | > 10 µM | > 10 µM | > 10 µM | > 10 µM | 0 | 0 | 0 | 0 | 0 |
| CN(C(=O)CN1C(=O)COc2cc(Cl)c(Cl)cc21)[C@@H](CN1CCCC1)c1ccc(-c2cccc(C(N)=O)c2)cc1 | 100% | 97.1% | 104% | 94.1% | 3.5% | 95% | 104% | 91.5% | 99% | 10.5% | 96.9% | 97% | 94.9% | 97.1% | 2.8% | 97.9% | 99% | 101% | 97.1% | 7.2% | 109% | 111% | 102% | 114% | 7% | 2.68 µM | 3.09 µM | 2.94 µM | 2.94 µM | 3.79 µM | 6.2 | 5.1 | 5.8 | 5.5 | 4.3 |
| COC1(C2=NCCN2)COc2ccccc2O1 (stereo unspecified) | 96.2% | 95.1% | 103% | 97.9% | 101% | 109% | 109% | 91.2% | 107% | 99.3% | 103% | 96% | 93.3% | 100% | 98.2% | 99.5% | 91.5% | 101% | 89.7% | 91.4% | 100% | 103% | 96% | 93% | 94.6% | > 10 µM | > 10 µM | > 10 µM | > 10 µM | > 10 µM | 0 | 0 | 0 | 0 | 0 |
| COc1ccc2cccc(N3CCN(CCNC(=O)c4ccc(F)cc4)CC3)c2c1 | 95.7% | 103% | 92.7% | 96.4% | 90.4% | 99.2% | 98.9% | 97.4% | 95.4% | 89.5% | 103% | 104% | 97.5% | 94% | 89.3% | 98.3% | 95.3% | 98.3% | 90.6% | 86.2% | 96.6% | 105% | 104% | 106% | 83% | > 10 µM | > 10 µM | > 10 µM | > 10 µM | > 10 µM | 0 | 0 | 0 | 0.3 | 0.2 |
| COc1cccc(Nc2ncnn3ccc(CN4CC[C@@H](N)[C@H](O)C4)c23)c1 | 96.2% | 96.5% | 93.2% | 92.6% | 55.7% | 105% | 102% | 102% | 99% | 87.9% | 100% | 89.4% | 65.7% | 51.4% | 14.8% | 89.2% | 91% | 81.2% | 76.1% | 48.6% | 103% | 94.4% | 46.5% | 23.7% | 9.1% |  | > 10 µM | 0.292 µM | 0.335 µM | 0.0837 µM | 3.5 | 0.1 | 14.4 | 7.5 | 21.9 |
| COc1ccccc1N1CCN(CCCCNC(=O)c2ccc(-c3ccc(C(C)=O)cc3)cc2)CC1 | 101% | 95.8% | 102% | 98.4% | 101% | 104% | 104% | 96.4% | 94.6% | 83.8% | 104% | 99.5% | 101% | 102% | 95.5% | 93.7% | 94.5% | 119% | 106% | 110% | 101% | 92.6% | 110% | 102% | 96.5% | > 10 µM | > 10 µM | > 10 µM | > 10 µM | > 10 µM | 0 | 0.5 | 0 | 0 | 0 |
| C[C@@H](NCc1cc(Br)cc2nc(O)c(O)nc12)P(=O)(O)O | 107% | 97.2% | 96.6% | 92.5% | 98.4% | 94.2% | 94% | 99.4% | 93.3% | 89.2% | 105% | 105% | 103% | 98.8% | 96.1% | 97% | 100% | 109% | 94.4% | 97.5% | 103% | 86% | 81% | 110% | 102% | > 10 µM | > 10 µM | > 10 µM | > 10 µM | > 10 µM | 0 | 0 | 0 | 0 | 0 |
| Cc1c(C)c(NCC(=O)N(C)C2CCN(Cc3ccc(C(N)=O)cc3)CC2)c(C)c(C)c1N | 100% | 97% | 102% | 99.2% | 98.1% | 97.5% | 100% | 101% | 102% | 96.7% | 96.1% | 97.7% | 92.4% | 101% | 105% | 98.7% | 99.6% | 92.7% | 96.6% | 112% | 105% | 91% | 101% | 104% | 103% | > 10 µM | > 10 µM | > 10 µM | > 10 µM | > 10 µM | 0 | 0 | 0 | 0 | 0 |

Reference: the supplement of paper PMC13380429
